Laboratory results from US10550105B2 (Ribon Therapeutics Inc., priority 2018, dated 2020).
pIC50: −log10 of the molar value.

target: PARP7 (Homo sapiens (Human), UniProt Q7Z3E1); assay: Enzymatic assay for inhibition of PARP7: TR-FRET displacement of biotinylated Probe A from the TIPARP active site; assay type: binding; conditions: Table A-1
Experimental: 20 nL of a dose response curve of each test compound was spotted in black 384-well polystyrene proxiplates (Perkin Elmer) using a Mosquito (TTP Labtech). […] Reactions were incubated at 25° C. for an additional 30 min, then read on an Envision platereader equipped with a LANCE/DELFIA top mirror (Perkin Elmer) using excitation of 320 nm and emission of 615 nm and […] with a 90 μs delay. The ratio of the 665/615 nm emission were calculated for each well to determine the amount of complex of TIPARP and Probe A in each well. […] The Hill Coefficient is normally allowed to float but may also be fixed at 1 in a 3-parameter fit. Y is the % inhibition and x is the compound concentration.

Sequence of PARP7 (Q7Z3E1 whole entry): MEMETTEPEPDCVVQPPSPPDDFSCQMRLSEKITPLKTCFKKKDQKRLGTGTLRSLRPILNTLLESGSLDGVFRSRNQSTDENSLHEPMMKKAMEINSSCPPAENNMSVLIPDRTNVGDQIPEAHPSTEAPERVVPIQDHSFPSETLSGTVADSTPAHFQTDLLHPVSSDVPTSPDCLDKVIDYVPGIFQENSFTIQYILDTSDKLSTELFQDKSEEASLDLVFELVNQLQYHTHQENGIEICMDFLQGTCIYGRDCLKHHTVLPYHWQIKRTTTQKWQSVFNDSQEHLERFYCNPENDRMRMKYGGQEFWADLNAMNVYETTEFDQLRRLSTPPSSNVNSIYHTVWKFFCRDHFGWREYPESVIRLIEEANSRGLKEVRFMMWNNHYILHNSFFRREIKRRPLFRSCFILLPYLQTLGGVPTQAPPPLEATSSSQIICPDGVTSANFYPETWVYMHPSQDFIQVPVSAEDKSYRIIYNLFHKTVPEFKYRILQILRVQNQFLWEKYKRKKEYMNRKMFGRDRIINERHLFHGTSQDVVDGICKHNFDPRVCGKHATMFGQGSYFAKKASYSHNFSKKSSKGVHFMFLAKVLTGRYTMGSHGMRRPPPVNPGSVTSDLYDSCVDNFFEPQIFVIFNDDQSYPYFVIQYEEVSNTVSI

| pIC50 | Compound |
| --- | --- |
| 6.00 to 7.00 | O=C(C[C@@H]1CC[C@@H](COc2cn[nH]c(=O)c2C(F)(F)F)O1)N1CCN(c2ncc(Cl)cn2)CC1 (single isomer, unassigned) [Example 565 Isomer A] |
| 6.00 to 7.00 | O=C(C[C@H]1CC[C@H](COc2cn[nH]c(=O)c2C(F)(F)F)O1)N1CCN(c2ncc(Cl)cn2)CC1 (single isomer, unassigned) [Example 565 Isomer B] |
| > 7.00 | O=C(C[C@H]1CC[C@@H](COc2cn[nH]c(=O)c2C(F)(F)F)O1)N1CCN(c2ncc(Cl)cn2)CC1 (single isomer, unassigned) [Example 565 Isomer C] |
| > 7.00 | O=C(C[C@@H]1CC[C@H](COc2cn[nH]c(=O)c2C(F)(F)F)O1)N1CCN(c2ncc(Cl)cn2)CC1 (single isomer, unassigned) [Example 565 Isomer D] |
| ≤ 6.00 | O=C(C[C@@H]1CC[C@@H](COc2cn[nH]c(=O)c2Cl)O1)N1CCN(c2ncc(Cl)cn2)CC1 (single isomer, unassigned) [Example 566 Isomer A] |
| ≤ 6.00 | O=C(C[C@H]1CC[C@H](COc2cn[nH]c(=O)c2Cl)O1)N1CCN(c2ncc(Cl)cn2)CC1 (single isomer, unassigned) [Example 566 Isomer B] |
| 6.00 to 7.00 | O=C(C[C@H]1CC[C@@H](COc2cn[nH]c(=O)c2Cl)O1)N1CCN(c2ncc(Cl)cn2)CC1 (single isomer, unassigned) [Example 566 Isomer C] |
| ≤ 6.00 | O=C(C[C@@H]1CC[C@H](COc2cn[nH]c(=O)c2Cl)O1)N1CCN(c2ncc(Cl)cn2)CC1 (single isomer, unassigned) [Example 566 Isomer D] |
| > 7.00 | O=C(C[C@H]1CC[C@@H](CNc2cn[nH]c(=O)c2C(F)(F)F)O1)N1CCN(c2ncc(Cl)cn2)CC1 (single isomer, unassigned) [Example 567 Isomer A] |
| > 7.00 | O=C(C[C@@H]1CC[C@H](CNc2cn[nH]c(=O)c2C(F)(F)F)O1)N1CCN(c2ncc(Cl)cn2)CC1 (single isomer, unassigned) [Example 567 Isomer B] |
| > 7.00 | O=C(C[C@@H]1CC[C@@H](CNc2cn[nH]c(=O)c2C(F)(F)F)O1)N1CCN(c2ncc(Cl)cn2)CC1 (single isomer, unassigned) [Example 567 Isomer C] |
| > 7.00 | O=C(C[C@H]1CC[C@H](CNc2cn[nH]c(=O)c2C(F)(F)F)O1)N1CCN(c2ncc(Cl)cn2)CC1 (single isomer, unassigned) [Example 567 Isomer D] |
| > 7.00 | O=C(C[C@@H]1CC[C@@H](CNc2cn[nH]c(=O)c2C(F)(F)F)O1)N1CCN(c2ncc(C(F)(F)F)cn2)CC1 (single isomer, unassigned) [Example 568 Isomer A] |
| > 7.00 | O=C(C[C@H]1CC[C@H](CNc2cn[nH]c(=O)c2C(F)(F)F)O1)N1CCN(c2ncc(C(F)(F)F)cn2)CC1 (single isomer, unassigned) [Example 568 Isomer B] |
| > 7.00 | COC[C@@H](COCCC(=O)N1CCN(c2ncc(C(F)(F)F)cn2)CC1)Oc1cn[nH]c(=O)c1C(F)(F)F (single isomer, unassigned) [Example 570 Isomer A] |
| 6.00 to 7.00 | COC[C@H](COCCC(=O)N1CCN(c2ncc(C(F)(F)F)cn2)CC1)Oc1cn[nH]c(=O)c1C(F)(F)F (single isomer, unassigned) [Example 570 Isomer B] |
| > 7.00 | COC[C@H](CO[C@H](C)CC(=O)N1CCN(c2ccc(C#N)cn2)CC1)Oc1cn[nH]c(=O)c1C(F)(F)F (single isomer, unassigned) [Example 571 Isomer A] |
| 6.00 to 7.00 | COC[C@@H](CO[C@@H](C)CC(=O)N1CCN(c2ccc(C#N)cn2)CC1)Oc1cn[nH]c(=O)c1C(F)(F)F (single isomer, unassigned) [Example 571 Isomer B] |
| ≤ 6.00 | COC[C@H](CO[C@H](C)CC(=O)N1CCN(c2ccc(C#N)cn2)CC1)Oc1cn[nH]c(=O)c1C(F)(F)F (single isomer, unassigned) [Example 571 Isomer C] |
| 6.00 to 7.00 | COC[C@@H](CO[C@H](C)CC(=O)N1CCN(c2ccc(C#N)cn2)CC1)Oc1cn[nH]c(=O)c1C(F)(F)F (single isomer, unassigned) [Example 571 Isomer D] |
| > 7.00 | N#Cc1ccc(N2CCN(C(=O)CCO[C@H]3CCC[C@@H]3Oc3cn[nH]c(=O)c3C(F)(F)F)CC2)nc1 (single isomer, unassigned) [Example 572 Isomer A] |
| 6.00 to 7.00 | N#Cc1ccc(N2CCN(C(=O)CCO[C@@H]3CCC[C@H]3Oc3cn[nH]c(=O)c3C(F)(F)F)CC2)nc1 (single isomer, unassigned) [Example 572 Isomer B] |
| > 7.00 | N#Cc1ccc(N2CCN(C(=O)CCOC[C@@H](CO)Oc3cn[nH]c(=O)c3C(F)(F)F)CC2)nc1 (single isomer, unassigned) [Example 573 Isomer B] |

| pIC50 | Compound |
| --- | --- |
| > 7.00 | N#Cc1ccc(N2CCN(C(=O)CCOC[C@H](CO)Oc3cn[nH]c(=O)c3C(F)(F)F)CC2)nc1 (single isomer, unassigned) [Example 573 Isomer C] |
| > 7.00 | N#Cc1ccc(N2CCN(C(=O)CCO[C@H](CO)COc3cn[nH]c(=O)c3C(F)(F)F)CC2)nc1 (single isomer, unassigned) [Example 573 Isomer D] |
| 6.00 to 7.00 | O=C(C[C@@H]1CC[C@@H](COc2cn[nH]c(=O)c2C(F)(F)F)O1)N1CCN(c2ncc(C(F)(F)F)cn2)CC1 (single isomer, unassigned) [Example 574 Isomer A] |
| 6.00 to 7.00 | O=C(C[C@H]1CC[C@H](COc2cn[nH]c(=O)c2C(F)(F)F)O1)N1CCN(c2ncc(C(F)(F)F)cn2)CC1 (single isomer, unassigned) [Example 574 Isomer B] |
| ≤ 6.00 | O=C(C[C@@H]1CC[C@@H](COc2cn[nH]c(=O)c2Cl)O1)N1CCN(c2ncc(C(F)(F)F)cn2)CC1 (single isomer, unassigned) [Example 575 Isomer A] |
| ≤ 6.00 | O=C(C[C@H]1CC[C@H](COc2cn[nH]c(=O)c2Cl)O1)N1CCN(c2ncc(C(F)(F)F)cn2)CC1 (single isomer, unassigned) [Example 575 Isomer B] |
| > 7.00 | C[C@H](CC(=O)N1CCN(c2ccc(C#N)cn2)CC1)OC[C@H](C)Oc1cn[nH]c(=O)c1C(F)(F)F (single isomer, unassigned) [Example 576 Isomer A] |
| > 7.00 | C[C@@H](CC(=O)N1CCN(c2ccc(C#N)cn2)CC1)OC[C@H](C)Oc1cn[nH]c(=O)c1C(F)(F)F (single isomer, unassigned) [Example 576 Isomer B] |
| > 7.00 | C[C@@H](COCCC(=O)N1CCN(c2ncc(Cl)cn2)CC1)Oc1cn[nH]c(=O)c1Cl (single isomer, unassigned) [Example 577 Isomer A] |
| > 7.00 | C[C@@H](COc1cn[nH]c(=O)c1Cl)OCCC(=O)N1CCN(c2ncc(Cl)cn2)CC1 (single isomer, unassigned) [Example 577 Isomer B] |
| > 7.00 | C[C@@H](COCCC(=O)N1CCN(c2ncc(C(F)(F)F)cn2)CC1)Oc1cn[nH]c(=O)c1Cl (single isomer, unassigned) [Example 578 Isomer A] |
| 6.00 to 7.00 | N#Cc1ccc(N2CCN(C(=O)C[C@@H]3CC[C@@H](COc4cn[nH]c(=O)c4C(F)(F)F)O3)CC2)nc1 (single isomer, unassigned) [Example 580 Isomer A] |
| 6.00 to 7.00 | N#Cc1ccc(N2CCN(C(=O)C[C@H]3CC[C@H](COc4cn[nH]c(=O)c4C(F)(F)F)O3)CC2)nc1 (single isomer, unassigned) [Example 580 Isomer B] |
| > 7.00 | N#Cc1ccc(N2CCN(C(=O)C[C@H]3CC[C@@H](CNc4cn[nH]c(=O)c4C(F)(F)F)O3)CC2)nc1 (single isomer, unassigned) [Example 581 Isomer A] |
| > 7.00 | N#Cc1ccc(N2CCN(C(=O)C[C@@H]3CC[C@@H](CNc4cn[nH]c(=O)c4C(F)(F)F)O3)CC2)nc1 (single isomer, unassigned) [Example 581 Isomer B] |
| ≤ 6.00 | N#Cc1ccc(N2CCN(C(=O)C[C@@H]3CC[C@@H](COc4cn[nH]c(=O)c4Cl)O3)CC2)nc1 (single isomer, unassigned) [Example 582 Isomer A] |
| 6.00 to 7.00 | N#Cc1ccc(N2CCN(C(=O)C[C@H]3CC[C@H](COc4cn[nH]c(=O)c4Cl)O3)CC2)nc1 (single isomer, unassigned) [Example 582 Isomer B] |
| > 7.00 | N#Cc1ccc(N2CCN(C(=O)C[C@@H]3CCC[C@@H](COc4cn[nH]c(=O)c4C(F)(F)F)O3)CC2)nc1 (single isomer, unassigned) [Example 583 Isomer A] |
| ≤ 6.00 | N#Cc1ccc(N2CCN(C(=O)C[C@H]3CCC[C@H](COc4cn[nH]c(=O)c4C(F)(F)F)O3)CC2)nc1 (single isomer, unassigned) [Example 583 Isomer B] |
| > 7.00 | CC[C@@H](COCCC(=O)N1CCN(c2ncc(Cl)cn2)CC1)Oc1cn[nH]c(=O)c1C(F)(F)F (single isomer, unassigned) [Example 591 Isomer A] |
| > 7.00 | N#Cc1ccc(N2CCN(C(=O)C[C@H]3CC[C@@H]([C@H]4c5ccccc5CN4c4cn[nH]c(=O)c4C(F)(F)F)O3)CC2)nc1 (single isomer, unassigned) [Example 612 Isomer A] |
| > 7.00 | N#Cc1ccc(N2CCN(C(=O)C[C@H]3CC[C@@H]([C@@H]4c5ccccc5CN4c4cn[nH]c(=O)c4C(F)(F)F)O3)CC2)nc1 (single isomer, unassigned) [Example 612 Isomer B] |
| ≤ 6.00 | N#Cc1ccc(N2CCN(C(=O)C[C@H]3CC[C@H]([C@@H]4c5ccccc5CN4c4cn[nH]c(=O)c4C(F)(F)F)O3)CC2)nc1 (single isomer, unassigned) [Example 612 Isomer C] |

| Compound | pIC50 |
| --- | --- |
| N#Cc1ccc(N2CCN(C(=O)CCO[C@@H](CO)COc3cn[nH]c(=O)c3C(F)(F)F)CC2)nc1 (single isomer, unassigned) [Example 573 Isomer A] | > 7.00 |
